Assay results as given in ChEMBL document CHEMBL1159112, “Synthesis, biological evaluation, and molecular modeling of berberine derivatives as potent acetylcholinesterase inhibitors” (Bioorg Med Chem, 2010).

Tests used:
Acetylcholinesterase [1] = target: T1, Acetylcholinesterase (Electrophorus electricus, UniProt O42275); test: Inhibition of electric eel AChE by modified Ellman method
[2] = Selectivity for electric eel AChE over horse serum BChE
Cholinesterase = Cholinesterase (Equus caballus, UniProt P81908)
Description: Inhibition of horse serum BChE by Ellman's method

Acetylcholinesterase [3] = target: T1, Acetylcholinesterase; test: Inhibition of electric eel AChE by enzyme kinetics assay

Sequence of Cholinesterase (P81908 whole entry): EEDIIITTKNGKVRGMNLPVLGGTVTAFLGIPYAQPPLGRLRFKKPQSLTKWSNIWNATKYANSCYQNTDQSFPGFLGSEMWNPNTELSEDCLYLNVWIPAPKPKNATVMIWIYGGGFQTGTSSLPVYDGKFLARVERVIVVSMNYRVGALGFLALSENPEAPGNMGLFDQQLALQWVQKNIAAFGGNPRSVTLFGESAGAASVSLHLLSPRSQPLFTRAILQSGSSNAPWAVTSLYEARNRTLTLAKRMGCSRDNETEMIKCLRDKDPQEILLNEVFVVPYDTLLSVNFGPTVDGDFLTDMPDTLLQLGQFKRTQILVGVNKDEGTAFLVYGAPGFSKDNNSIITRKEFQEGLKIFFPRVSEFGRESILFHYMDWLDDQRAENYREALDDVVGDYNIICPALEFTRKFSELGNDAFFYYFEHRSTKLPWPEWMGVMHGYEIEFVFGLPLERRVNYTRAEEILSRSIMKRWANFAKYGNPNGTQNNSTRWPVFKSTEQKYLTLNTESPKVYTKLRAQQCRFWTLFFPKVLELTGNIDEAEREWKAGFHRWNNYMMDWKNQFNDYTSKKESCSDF
T1 sequence (O42275 whole entry): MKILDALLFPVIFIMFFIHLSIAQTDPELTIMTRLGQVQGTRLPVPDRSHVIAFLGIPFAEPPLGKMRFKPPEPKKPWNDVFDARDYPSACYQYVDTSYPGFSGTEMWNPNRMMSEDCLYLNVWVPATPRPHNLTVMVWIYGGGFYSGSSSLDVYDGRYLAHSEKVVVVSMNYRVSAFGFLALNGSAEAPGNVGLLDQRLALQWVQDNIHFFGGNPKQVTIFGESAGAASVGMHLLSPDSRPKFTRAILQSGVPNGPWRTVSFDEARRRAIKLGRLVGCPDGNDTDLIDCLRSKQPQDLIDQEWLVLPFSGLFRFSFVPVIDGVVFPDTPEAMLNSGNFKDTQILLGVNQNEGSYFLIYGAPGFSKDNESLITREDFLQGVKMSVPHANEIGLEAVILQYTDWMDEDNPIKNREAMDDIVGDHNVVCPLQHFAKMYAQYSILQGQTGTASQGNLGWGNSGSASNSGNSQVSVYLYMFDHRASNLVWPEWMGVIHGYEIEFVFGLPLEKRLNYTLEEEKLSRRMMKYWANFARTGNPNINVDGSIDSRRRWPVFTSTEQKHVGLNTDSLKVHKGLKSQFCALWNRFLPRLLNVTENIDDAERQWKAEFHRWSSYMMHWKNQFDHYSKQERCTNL

Structure (SMILES)	IC50 (Acetylcholinesterase [1]) [nM]	Ratio IC50 [2]	IC50 (Cholinesterase) [nM]	Ki (Acetylcholinesterase [3]) [nM]
COc1ccc2cc3[n+](cc2c1OCCOc1cccc2[nH]c4ccccc4c12)CCc1cc2c(cc1-3)OCO2	1230			
COc1ccc2cc3[n+](cc2c1OCCCCCOn1nnc2ccccc21)CCc1cc2c(cc1-3)OCO2	280	8.9	2490	
COc1ccc2cc3[n+](cc2c1OC)CCc1cc2c(cc1-3)OCO2 [BERBERINE CHLORIDE]	374			289
COc1ccc2cc3[n+](cc2c1OCCCCCOc1cccc2[nH]c4ccccc4c12)CCc1cc2c(cc1-3)OCO2	1680			
COc1ccc2cc3[n+](cc2c1OCCCCOn1nnc2ccccc21)CCc1cc2c(cc1-3)OCO2	224	18.6	4170	
COc1ccc2cc3[n+](cc2c1OCCCCOc1cccc2[nH]c4ccccc4c12)CCc1cc2c(cc1-3)OCO2	856			
COc1ccc2cc3[n+](cc2c1OCCCCCCOc1cccc2[nH]c4ccccc4c12)CCc1cc2c(cc1-3)OCO2	2100			
COc1ccc2cc3[n+](cc2c1OCCCCCCOc1ccccc1)CCc1cc2c(cc1-3)OCO2	520			
COc1ccc2cc3[n+](cc2c1OCCCCCOc1ccccc1)CCc1cc2c(cc1-3)OCO2	398			
COc1ccc2cc3[n+](cc2c1OCCOn1nnc2ccccc21)CCc1cc2c(cc1-3)OCO2	375			
COc1ccc2cc3[n+](cc2c1OCCCCCCOn1nnc2ccccc21)CCc1cc2c(cc1-3)OCO2	515	5.5		
COc1ccc2cc3[n+](cc2c1OCCCOc1cccc2[nH]c4ccccc4c12)CCc1cc2c(cc1-3)OCO2	1120			
COc1ccc2cc3[n+](cc2c1OCCOc1ccccc1)CCc1cc2c(cc1-3)OCO2	224			
COc1ccc2cc3[n+](cc2c1OCCCOc1ccccc1)CCc1cc2c(cc1-3)OCO2	123			
COc1ccc2cc3[n+](cc2c1OCCCOn1nnc2ccccc21)CCc1cc2c(cc1-3)OCO2	359	8	2890	
